Consider 12 molecules from patent US20110287933A1, “Herbicidal composition for tolerant or resistant oilseed rape crops” (BAYER CROPSCIENCE AG, priority 2010, published 2011).

Type in all cases: in vivo
The subject of data set [1] is oilseed rape (GA-tolerant). The data set is described as follows: Greenhouse trial, crop plant compatibility in oilseed rape (GA-tolerant). The conditions noted are these: 2-4 oilseed rape-leaf stage. As for the experimental part:
The trials were carried out under greenhouse conditions (test pots, diameter 8 cm, spray application using 300 l of water/hectare, 2 repetitions, 6 to 8 plants per pot).
Scoring was by visual comparison of the treated with the untreated controls (0-100% scale, 14-19 days after the application) (see details in the respective tables).

The subject of data set [2] is Lolium multiflorum. The data set is described as follows: Greenhouse trial, post-emergence herbicidal efficacy against Lolium multiflorum. The conditions noted are these: scoring 14 days after application, g of ai/ha: A1.1 100, B1.1 5, C10 5, C11 15, combinations at the same rates. As to the method: (§1) The trials were carried out under greenhouse conditions (test pots, diameter 8 cm, spray application using 300 l of water/hectare, 2 repetitions, 6 to 8 plants per pot). Application was by post-emergence treatment; the species of the harmful plants and their stage of growth at the time of treatment are, indicated in the individual results tables. The application rates of the herbicidally active compounds used on their own or in combinations are likewise listed in the individual results tables.
(§2) Scoring was by visual comparison of the treated with the untreated controls (0-100% scale, 14-19 days after the application) (see details in the respective tables). The results (means for all plants per pot and means of two repetitions per pot and treatment) are lised in Tables 4 to 6 below.
(§3) 4.2 Abbreviations Used in Tables 4 to 6 • application rate g/ai=application rate in grams of active compound per hectare • ai=active ingredient (of an active compound content of 100%) • GA=glufosinate-ammonium • GA-tolerant=oilseed rape which is tolerant to GA (GMO) • E^C=expected value according to Colby, (E^C=A+B−A×B/100)=for ternary combinations: (A+B)+C−(A+B)×C/100 • E^A=expected value according to the addition method (E^A=A+B) • A=difference (%) between observed value−%−vs. expected value (%) (observed value minus expected value) • examination:—observed values for (A), (B) and (A)+(B) in % • scoring:—observed value (%) greater >than E^C/E^A: ->synergism (+Δ) • observed value (%) equal to =E^c/E^A->additive effect (+−0Δ) • observed value (%) smaller <than E^A/E^c->antagonism (−Δ)

Data set [3] concerns Matricaria chamomilla. The data set is described as follows: Greenhouse trial, post-emergence herbicidal efficacy against Matricaria chamomilla. The conditions noted are these: scoring 19 days after application, g of ai/ha: A1.1 100, B1.1 5, C12 50, combinations at the same rates. As to the method:
as §1, §2, §3

For data set [4], the system named is Viola arvensis. Description: Greenhouse trial, post-emergence herbicidal efficacy against Viola arvensis. The conditions noted are these: scoring 14 days after application, g of ai/ha: A1.1 100, B1.1 5, C1 25, C2 100, C3 12.5, C4 2.5, C5 50, C6 125, C7 250, C8 250, C9 5, combinations at the same rates. As for the experimental part:
as §1
Scoring was by visual comparison of the treated with the untreated controls (0-100% scale, 14-19 days after the application) (see details in the respective tables). The results (means for all plants per pot and means of two repetitions per pot and treatment) are lised in Tables 4 to 6 below. […]

Setting [5] is: Table 4, post-emergence, scoring 14 days after application, g of ai/ha: A1.1 100, B1.1 5, C1 25, C2 100, C3 12.5, C4 2.5, C5 50, C6 125, C7 250, C8 250, C9 5, combinations at the same rates, (75)* = selective only in IMI × GA tolerant crop plants.
[6] abbreviates: Table 5, post-emergence, scoring 14 days after application, g of ai/ha: A1.1 100, B1.1 5, C10 5, C11 15, combinations at the same rates.
Where [7] appears, read: Table 6, post-emergence, scoring 19 days after application, g of ai/ha: A1.1 100, B1.1 5, C12 50, combinations at the same rates.

For `CP(=O)(O)CCC(N)C(=O)O` (centres unmarked) [A1.1, glufosinate-ammonium], the “Damage to crop plants (%) oilseed rape (GA-tolerant) (≦15-20% acceptable)” value (shortened to “Damage to crop plants (%) oilseed rape”) in data set [1] (setting [5]), in data set [1] (setting [6]) and in data set [1] (setting [7]) was 10% throughout. Further, in data set [2], the “Herbicidal efficacy % Lolium multiflorum” value stood at 20%. The “Herbicidal efficacy % Matricaria chamomilla” value in data set [3] turned out to be 95%. As to `COC(=O)c1nc(-c2ccc(Cl)c(OC)c2F)cc(N)c1Cl` [B1.1, methyl 4-amino-3-chloro-6-(4-chloro-2-fluoro-3-methoxyphenyl)pyridine-2-carboxylate], the “Herbicidal efficacy % Lolium multiflorum” value in data set [2] was found to be 0%. For the same molecule, the “Herbicidal efficacy % Matricaria chamomilla” value in data set [3] was found to be 40%. With `O=C(O)c1nc(Cl)ccc1Cl` [C1, clopyralid], the “Damage to crop plants (%) oilseed rape” value in data set [1] (setting [5]) was determined as 0%. On to `CCOC(=O)[C@@H](C)Oc1ccc(Oc2nc3ccc(Cl)cc3o2)cc1` [C3, fenoxaprop-P-ethyl], for which the “Damage to crop plants (%) oilseed rape” value in data set [1] (setting [5]) amounted to 15%. Besides, the “Herbicidal efficacy % Viola arvensis” value in data set [4] came out at 0%. `C[C@@H](Oc1ccc(Oc2ncc(C(F)(F)F)cc2Cl)cc1)C(=O)O` [C4, haloxyfop-p]: in data set [4], the “Herbicidal efficacy % Viola arvensis” value is on record as 0%. Consider `Cc1cccc(C)c1N(Cn1cccn1)C(=O)CCl` [C5, metazachlor], for which the “Damage to crop plants (%) oilseed rape” value in data set [1] (setting [5]) is listed as 0%. On the same count and under the same terms, for `CCCCCCCCSC(=O)Oc1cc(Cl)nnc1-c1ccccc1` [C7, pyridate] the value was 0%; for `CCCN(CCC)c1c([N+](=O)[O-])cc(C(F)(F)F)cc1[N+](=O)[O-]` [C8, trifluralin], 0%. Regarding `COCc1cnc(C2=NC(C)(C(C)C)C(=O)N2)c(C(=O)O)c1` (centres unmarked) [C9, imazamox], the “Damage to crop plants (%) oilseed rape” value in data set [1] (setting [5]) was “(75)* %”. Regarding `CCSC(C)CC1CC(=O)C(/C(CC)=N/OC/C=C/Cl)=C(O)C1` (centres unmarked) [C10, clethodim], the “Damage to crop plants (%) oilseed rape” value in data set [1] (setting [6]) amounted to 0%. The “Herbicidal efficacy % Lolium multiflorum” value in data set [2] is recorded as 50%. In the case of `CCCC(=NOCC)C1=C(O)CC(C2CCCSC2)CC1=O` (centres unmarked) [C11, cycloxydim], the “Herbicidal efficacy % Lolium multiflorum” value in data set [2] was found to be 70%. With `CC1(C)CON(Cc2ccccc2Cl)C1=O` [C12, Clomazone], the “Damage to crop plants (%) oilseed rape” value in data set [1] (setting [7]) worked out at 15%. Further, the “Herbicidal efficacy % Matricaria chamomilla” value in data set [3] is 0%.
